Data published in article PMC6198970, “Safety, efficacy, and dose response of the maturation inhibitor GSK3532795 (formerly known as BMS-955176) plus tenofovir/emtricitabine once daily in treatment-naive HIV-1-infected adults: Week 24 primary analysis from a randomized Phase IIb trial” (PLoS ONE, 2018).
Where two headings read alike, the source gives them in different places.

Tests used:
[1] = set-up: method as in protocol Section 1.4.1.2; conditions: 300 mg/kg/day (AUC 279 g·h/mL); ref protocol Section 1.4.1.2; cited from earlier work
[2] = Clinical laboratory evaluations; format: in vivo, HIV-1-infected adults
Method: Physical examinations, measurement of vital signs, and clinical laboratory evaluations were performed at Weeks 4, 8, 12, 16 and 24, and participants were closely monitored for AEs and SAEs throughout. AEs were classified according to MedDRA version 19.0. The severity and relationship to study drug was assessed by the local investigator.

[3] = ref protocol Section 1.4.1.2, cited from earlier work
[4] = system: HIV-1; experiment: Protocol-defined virologic failure and drug resistance testing (GenoSure MG, PhenoSense); format: in vivo, HIV-1-infected adults; conditions: through Week 24
Description: PDVF was defined as either: (1) confirmed HIV-1 RNA ≥40 copies/mL at any time after prior confirmed suppression to <40 copies/mL; or (2) a confirmed >1 log10 copies/mL above the nadir level. Genotypic information required for screening was generated using the GenoSure® MG assay; genotypic information and phenotypic observations during the treatment period were generated using the PhenoSense® combination resistance test.

[5] = ref protocol Section 1.4.1.2, cited from earlier work; remark: listed apart in the source
[6] = 10 mg/kg/day; ref protocol Section 1.4.1.2; cited from earlier work
[7] = system: mouse P-glycoprotein (P-gp); conditions: higher bioavailability in P-gp knock-out mice / with elacridar; ref protocol Section 1.4.1.2; cited from earlier work
[8] = system: 93 subtype B viruses; set-up: method as in protocol Section 1.4.1.2; conditions: ref protocol Section 1.4.1.2, read-out: EC50, median; cited from earlier work
[9] = system: HIV-1; conditions: ref AI468002, cited from earlier work
[10] = set-up: method as in protocol Section 1.4.1.2; conditions: ref protocol Section 1.4.1.2; cited from earlier work
[11] = set-up: method as in Study AI468034; conditions: 120 mg MC tablet; ref Study AI468034; cited from earlier work
[12] = system: CYPs; set-up: method as in protocol Section 1.4.1.2; conditions: ref protocol Section 1.4.1.2; cited from earlier work
[13] = system: HIV-1; conditions: 40% HS supplemented with additional human serum albumin; ref protocol Section 1.4.1.2; cited from earlier work
[14] = BMS-955176 40 mg SDD suspension and TDF at steady state; ref Study AI468005; cited from earlier work
[15] = system: CYP3A4; set-up: method as in protocol Section 1.4.1.2; conditions: ref protocol Section 1.4.1.2; cited from earlier work
[16] = cited from earlier work
[17] = system: P gp, NTCP, OAT1, OAT3, MRP2, BSEP; set-up: method as in protocol Section 1.4.1.2; conditions: ref protocol Section 1.4.1.2; cited from earlier work
[18] = Part A, clade B, 10 days monotherapy, 5 mg

## C=C(C)[C@@H]1CC[C@]2(NCCN3CCS(=O)(=O)CC3)CC[C@]3(C)[C@H](CC[C@@H]4[C@@]5(C)CC=C(c6ccc(C(=O)O)cc6)C(C)(C)[C@@H]5CC[C@]43C)[C@@H]12 [GSK3532795]
[1]
  Genotoxicity in rat micronucleus assay: not genotoxic
[2]; 60 mg arm
  Grade 3 low potassium: one participant
[2]; 120 mg arm, baseline to Week 24
  Mean total cholesterol, direction of change: decreased
[2]; 180 mg arm
  Grade 3 laboratory abnormalities in triglycerides and creatinine clearance (CrCl): one participant each
[2]; GSK3532795 arms
  Grade 3 liver chemistry abnormalities: three participants
[2]; range across all GSK3532795 arms, baseline to Week 24
  Mean decrease in triglyceride levels: 5.0 to 12.9 mg/dL
[3]; 1 mg/kg/day
  AUC at NOAEL: 64.9 gh/mL
[3]; 3 mg/kg/day
  AUC at lowest dose with effects: 135 gh/mL
[3]; dog 9-month, stomach histologic changes
  NOAEL: 1 mg/kg/day
[4]; 60 mg arm
  Rate of protocol-defined virologic failure (PDVF): 12% (6/50)
[4]; 120 mg arm
  Rate of protocol-defined virologic failure (PDVF): 10% (5/52)
[4]; 180 mg arm
  Rate of protocol-defined virologic failure (PDVF): 6% (3/51)
[5]; mice, no maternal toxicity at any dose
  Developmental toxicity classification: selective developmental toxicant
[5]; mouse EFD
  Developmental NOAEL: 45 mg/kg/day
[5]; printed dose 100 mg/kg/day, […] in control litters
  Cumulative postimplantation losses: 11.5%
[5]
  Reductions in fetal body weight relative to control values: 5%
[6]
  AUC at lowest dose with effects: 71 gh/mL
[7]
  P-gp substrate status: substrate of mouse P-glycoprotein (P-gp)
[8]
  EC50: 0.0022 µM
[9]; Part A, 10 mg
  Maximum decline log10 HIV-1 RNA, max: -1.76 Log10
  Maximum decline log10 HIV-1 RNA, mean: -1.05 Log10
  Maximum decline log10 HIV-1 RNA, median: -0.976 Log10
  Maximum decline log10 HIV-1 RNA, min: -0.64 Log10
[9]; Part A, 20 mg
  Maximum decline log10 HIV-1 RNA, max: -2.12 Log10
  Maximum decline log10 HIV-1 RNA, mean: -1.17 Log10
  Maximum decline log10 HIV-1 RNA, median: -1.115 Log10
  Maximum decline log10 HIV-1 RNA, min: -0.13 Log10
[9]; Part A, 40 mg
  Maximum decline log10 HIV-1 RNA, max: -1.88 Log10
  Maximum decline log10 HIV-1 RNA, mean: -1.55 Log10
  Maximum decline log10 HIV-1 RNA, median: -1.701 Log10
  Maximum decline log10 HIV-1 RNA, min: -0.93 Log10
[9]; Part A, 80 mg
  Maximum decline log10 HIV-1 RNA, max: -1.82 Log10
  Maximum decline log10 HIV-1 RNA, mean: -1.52 Log10
  Maximum decline log10 HIV-1 RNA, median: -1.555 Log10
  Maximum decline log10 HIV-1 RNA, min: -1.04 Log10
[9]; Part A, 120 mg
  Maximum decline log10 HIV-1 RNA, max: -2.07 Log10
  Maximum decline log10 HIV-1 RNA, mean: -1.53 Log10
  Maximum decline log10 HIV-1 RNA, median: -1.654 Log10
  Maximum decline log10 HIV-1 RNA, min: -0.83 Log10
[9]; [18]
  Maximum decline log10 HIV-1 RNA, max: -0.78 Log10
  Maximum decline log10 HIV-1 RNA, mean: -0.49 Log10
  Maximum decline log10 HIV-1 RNA, median: -0.498 Log10
  Maximum decline log10 HIV-1 RNA, min: -0.22 Log10
[9]; Part C, clade C, 40 mg
  Maximum decline log10 HIV-1 RNA, max: -2.03 Log10
  Maximum decline log10 HIV-1 RNA, median: -1.285 Log10
  Maximum decline log10 HIV-1 RNA, min: -1.04 Log10
[9]; Part C, clade C, 10 days monotherapy, 40 mg
  Maximum decline log10 HIV-1 RNA, mean: -1.5 Log10
[9]; alone or with ATV ± RTV for 10-28 days, preliminary
  Safety in Phase 2a: no deaths, SAEs, or AEs leading to discontinuation
[9]; doses 40 mg SDD once daily and above, clade B and clade C
  Median maximal reductions in HIV-1 RNA: > 1 log10
[10]
  Phototoxicity, mutagenicity, clastogenicity in vitro: not phototoxic, mutagenic, or clastogenic
[11]
  Bioavailability lower relative to 80 mg SDD suspension: approximately 23%
  Impact of high fat meal on Cmax: negligible impact
  Increase in C24 with a high fat meal relative to fasted: approximately 70%
[12]
  Time-dependent inhibition of CYPs: No
[13]
  Reduction of antiviral activity: approximately 4 fold
[14]
  Impact of coadministration on exposures: neither BMS-955176 nor TDF exposures were meaningfully impacted
[15]
  IC50: 32 µM
[16]; at 20 mg/kg, ref protocol Section 1.4.1.2
  Blood pressure and electrocardiogram: unaffected
[16]; dog, in vivo
  No-observed-effect level (NOEL/NOAEL) for cardiovascular effects (heart rate): 2 mg/kg
[17]
  Inhibition of P gp, NTCP, OAT1, OAT3, MRP2, and BSEP: not an inhibitor
